Source: the supplement of paper PMC7394473

Key:
Conditions in all cases: 72 h
[1] = system: U2OS; assay: FV IC50 (concentration giving fractional viability 0.5); higher = less potent killing
Protocol: (§1)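 U2OS cells treated with full dose titrations of drug; live and dead cells counted by STACK microscopy (mKate2 nuclei, SYTOX Green) at 72 h, biological triplicates. GR and FV dose responses were fitted with 4-parameter logistic models (GR lower bound -1). GRADE (0-100) is the rescaled angle of a linear fit of FV versus GR at doses with GR >= 0, giving the percentage of the response due to cell death.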

[2] = system: U2OS; assay: drug GRADE (percent of response due to cell death) (% (0-100)); higher = more death-driven response
Protocol: as §1

[3] = system: U2OS; assay: GR50 (concentration giving GR = 0.5)
Protocol: as §1

[4] = system: U2OS; assay: normalized growth rate inhibition value (GR) relative to untreated cells (GR value (dimensionless, 1 = untreated growth)); higher = less growth inhibition
Protocol: (§2)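 U2OS::Nuc-mKate2 cells seeded in 96-well plates and treated with eight- to ten-point half-log or log dilutions of drug in the presence of 50 nM SYTOX Green. Live (mKate2+) and dead (SYTOX+) cells were counted by IncuCyte STACK live-cell microscopy at 72 h; biological triplicates. GR is the normalised growth-rate inhibition value (Hafner 2016; 1 = untreated growth, <0 = population shrinking). FV is live/(live+dead) cells, not normalised.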

[5] = system: U2OS; assay: fractional viability (live cells / total cells); higher = less cell death
Protocol: as §2

[6] = system: U2OS; assay: GRmin (fitted minimal GR value at highest effect) (GR value (dimensionless)); higher = less efficacious
Protocol: as §1

SMILES | FV IC50 [1] | drug GRADE [2] | GR50 [3] | normalized growth rate inhibition value ([4]; 1 µM) | normalized growth rate inhibition value ([4]; 3.16 µM) | fractional viability ([5]; 1 µM) | fractional viability ([5]; 3.16 µM) | GRmin [6] | normalized growth rate inhibition value ([4]; 0.01 µM) | normalized growth rate inhibition value ([4]; 0.0316 µM) | normalized growth rate inhibition value ([4]; 0.1 µM) | normalized growth rate inhibition value ([4]; 0.316 µM) | normalized growth rate inhibition value ([4]; 10 µM) | normalized growth rate inhibition value ([4]; 31.6 µM) | fractional viability ([5]; 0.01 µM) | fractional viability ([5]; 0.0316 µM) | fractional viability ([5]; 0.1 µM) | fractional viability ([5]; 0.316 µM) | fractional viability ([5]; 10 µM) | fractional viability ([5]; 31.6 µM) | other results
CCOc1cc2ncc(C#N)c(Nc3ccc(OCc4ccccn4)c(Cl)c3)c2cc1NC(=O)/C=C/CN(C)C [Neratinib] | 1970 nM | 20 | 0.346 µM | 0.255 | -0.534 | 0.879 | 0.189 |  |  |  |  |  |  |  |  |  |  |  |  |  | normalized growth rate inhibition value ([4]; 0.000317827 µM): 0.803; normalized growth rate inhibition value ([4]; 0.00100433 µM): 0.812; normalized growth rate inhibition value ([4]; 0.00317369 µM): 0.867; normalized growth rate inhibition value ([4]; 0.0100289 µM): 0.776; normalized growth rate inhibition value ([4]; 0.0316912 µM): 0.727; normalized growth rate inhibition value ([4]; 0.100144 µM): 0.638; normalized growth rate inhibition value ([4]; 0.316456 µM): 0.457; fractional viability ([5]; 0.000317827 µM): 0.985; fractional viability ([5]; 0.00100433 µM): 0.987; fractional viability ([5]; 0.00317369 µM): 0.985; fractional viability ([5]; 0.0100289 µM): 0.986; fractional viability ([5]; 0.0316912 µM): 0.984; fractional viability ([5]; 0.100144 µM): 0.968; fractional viability ([5]; 0.316456 µM): 0.933
O=C(NCCCNc1nc(Nc2cccc(NC(=O)N3CCCC3)c2)ncc1I)c1cccs1 [BX795] | 11600 nM | 34.3 | 1.46 µM | 0.723 | -0.0493 | 0.94 | 0.716 | -0.438 | 0.987 | 1.11 | 0.954 | 1.01 | -0.146 | -0.574 | 0.982 | 0.975 | 0.974 | 0.971 | 0.661 | 0.102 | 
CC(C)[C@]12O[C@H]1[C@@H]1O[C@]13[C@]1(O[C@H]1C[C@H]1C4=C(CC[C@@]13C)C(=O)OC4)[C@@H]2O [Triptolide] | 11.2 nM | 8 | 0.00421 µM |  | -0.267 |  | 0.154 | -0.262 |  | -0.197 |  | -0.249 |  | -0.258 |  | 0.18 |  | 0.155 |  | 0.159 | normalized growth rate inhibition value ([4]; 3.16 pM): 1.03; normalized growth rate inhibition value ([4]; 31.6 pM): 1.01; normalized growth rate inhibition value ([4]; 0.000316 µM): 0.928; normalized growth rate inhibition value ([4]; 0.00316 µM): 0.633; fractional viability ([5]; 3.16 pM): 0.981; fractional viability ([5]; 31.6 pM): 0.979; fractional viability ([5]; 0.000316 µM): 0.979; fractional viability ([5]; 0.00316 µM): 0.957
COc1cc2nccc(Oc3ccc(NC(=O)Nc4cc(C)on4)c(Cl)c3)c2cc1OC [Tivozanib] | 7340 nM | 7.57 | 3.87 µM | 0.812 | 0.681 | 0.977 | 0.949 | -0.878 | 0.857 | 1.17 | 1.05 | 1.03 | -0.421 | -0.823 | 0.977 | 0.982 | 0.98 | 0.977 | 0.229 | 0.0183 | 
O=C(/C=C/c1cccc(S(=O)(=O)Nc2ccccc2)c1)NO [Belinostat] | 930 nM | 63.3 | 0.332 µM | -0.0168 | -0.527 | 0.466 | 0.096 | -0.733 | 0.939 | 0.975 | 0.836 | 0.498 | -0.646 | -0.72 | 0.969 | 0.972 | 0.947 | 0.878 | 0.0497 | 0.0293 | 
COCC[n+]1c2c(n(Cc3cnccn3)c1C)C(=O)c1ccccc1C2=O [YM155] | 36.4 nM | 44.1 | 0.00769 µM | -0.94 | -0.882 | 0.00318 | 0.00039 | -0.913 | 0.107 | 0.0141 | -0.788 | -0.79 | -0.967 | -0.859 | 0.852 | 0.59 | 0.0412 | 0.00681 | 0 | 0.0019 | normalized growth rate inhibition value ([4]; 3.16 pM): 0.943; normalized growth rate inhibition value ([4]; 31.6 pM): 1; normalized growth rate inhibition value ([4]; 0.000316 µM): 1.02; normalized growth rate inhibition value ([4]; 0.00316 µM): 0.777; fractional viability ([5]; 3.16 pM): 0.981; fractional viability ([5]; 31.6 pM): 0.981; fractional viability ([5]; 0.000316 µM): 0.983; fractional viability ([5]; 0.00316 µM): 0.962
CNc1cc(-c2cccc(Cl)c2Cl)nc(N)n1 [TH287] | 3640 nM | 60 | 0.672 µM | 0.278 | 0.0764 | 0.787 | 0.534 | -0.144 | 0.956 | 0.997 | 0.99 | 0.786 | -0.106 | -0.187 | 0.973 | 0.981 | 0.976 | 0.953 | 0.383 | 0.476 | 
Cc1cc(Nc2ccc(NC(=O)c3ccc(Nc4ccnc5ccccc45)cc3)cc2)nc(N)n1 [SGI-1027] | 1620 nM | 37.1 | 1.15 µM | 0.642 | -0.651 | 0.87 | 0.0651 | -0.799 | 0.952 | 1.02 | 0.932 | 0.948 | -0.88 | -0.717 | 0.975 | 0.977 | 0.98 | 0.975 | 0.00115 | 0.0226 | 
O=C(CCCCCCC(=O)Nc1ccccc1)NO [Vorinostat] | 765 nM | 28 | 0.274 µM |  |  |  |  | -0.601 |  |  |  |  | -0.591 |  |  |  |  |  | 0.091 |  | normalized growth rate inhibition value ([4]; 0.00100578 µM): 0.932; normalized growth rate inhibition value ([4]; 0.00317827 µM): 1.11; normalized growth rate inhibition value ([4]; 0.0100433 µM): 0.89; normalized growth rate inhibition value ([4]; 0.0317369 µM): 0.906; normalized growth rate inhibition value ([4]; 0.100289 µM): 0.901; normalized growth rate inhibition value ([4]; 0.316912 µM): 0.396; normalized growth rate inhibition value ([4]; 1.00144 µM): -0.201; normalized growth rate inhibition value ([4]; 3.16456 µM): -0.515; fractional viability ([5]; 0.00100578 µM): 0.992; fractional viability ([5]; 0.00317827 µM): 0.99; fractional viability ([5]; 0.0100433 µM): 0.991; fractional viability ([5]; 0.0317369 µM): 0.985; fractional viability ([5]; 0.100289 µM): 0.973; fractional viability ([5]; 0.316912 µM): 0.875; fractional viability ([5]; 1.00144 µM): 0.365; fractional viability ([5]; 3.16456 µM): 0.16
COc1cc2c(Oc3ccc(NC(=O)C4(C(=O)Nc5ccc(F)cc5)CC4)cc3F)ccnc2cc1OCCCN1CCOCC1 [Foretinib] | 864 nM | 39.7 | 0.138 µM | -0.199 | -0.831 | 0.553 | 0.0154 | -0.837 | 0.909 | 0.791 | 0.766 | -0.079 | -0.93 | -0.682 | 0.966 | 0.963 | 0.941 | 0.689 | 0 | 0.0267 | 
C=CCn1c(=O)c2cnc(Nc3ccc(N4CCN(C)CC4)cc3)nc2n1-c1cccc(C(C)(C)O)n1 [MK1775] | 584 nM | 40.7 | 0.156 µM | -0.346 | -0.56 | 0.294 | 0.125 | -0.689 | 1.15 | 1.03 | 0.664 | 0.061 | -0.681 | -0.762 | 0.978 | 0.977 | 0.948 | 0.725 | 0.0517 | 0.0225 | 
CC(=O)O[C@@]12CO[C@@H]1C[C@H](O)[C@@]1(C)C(=O)[C@H](O)C3=C(C)[C@@H](OC(=O)[C@H](O)[C@@H](NC(=O)OC(C)(C)C)c4ccccc4)C[C@@](O)([C@@H](OC(=O)c4ccccc4)[C@H]21)C3(C)C [Docetaxel] | 4.77 nM | 69.6 | 0.000853 µM |  |  |  |  | -0.193 |  |  |  |  | -0.164 |  |  |  |  |  | 0.255 |  | normalized growth rate inhibition value ([4]; 0.00100578 µM): 0.339; normalized growth rate inhibition value ([4]; 0.00317827 µM): 0.223; normalized growth rate inhibition value ([4]; 0.0100433 µM): 0.0565; normalized growth rate inhibition value ([4]; 0.0317369 µM): -0.0266; normalized growth rate inhibition value ([4]; 0.100289 µM): -0.14; normalized growth rate inhibition value ([4]; 0.316912 µM): -0.174; normalized growth rate inhibition value ([4]; 1.00144 µM): -0.245; normalized growth rate inhibition value ([4]; 3.16456 µM): -0.251; fractional viability ([5]; 0.00100578 µM): 0.707; fractional viability ([5]; 0.00317827 µM): 0.588; fractional viability ([5]; 0.0100433 µM): 0.41; fractional viability ([5]; 0.0317369 µM): 0.413; fractional viability ([5]; 0.100289 µM): 0.323; fractional viability ([5]; 0.316912 µM): 0.351; fractional viability ([5]; 1.00144 µM): 0.252; fractional viability ([5]; 3.16456 µM): 0.238
CC[C@@H](C(=O)[C@@H](C)[C@@H](O)[C@H](C)[C@@H]1O[C@@H]([C@@H](CC)C(=O)O)CC[C@@H]1C)[C@H]1O[C@]2(C=C[C@@H](O)[C@]3(CC[C@@](C)([C@H]4CC[C@](O)(CC)[C@H](C)O4)O3)O2)[C@H](C)C[C@@H]1C [Salinomycin] | 17500 nM | 59.9 | 2.41 µM | 0.63 | 0.405 | 0.899 | 0.725 |  | 1.07 | 0.992 | 0.814 | 0.77 | 0.316 | -0.253 | 0.982 | 0.975 | 0.977 | 0.955 | 0.722 | 0.322 | 
C[C@@H]1O[C@@H](O[C@H]2C[C@@H](O)[C@]3(CO)[C@H]4[C@H](O)C[C@]5(C)[C@@H](C6=CC(=O)OC6)CC[C@]5(O)[C@@H]4CC[C@]3(O)C2)[C@H](O)[C@H](O)[C@H]1O [Ouabain] | 52.6 nM | 30.9 | 0.0164 µM | -0.569 | -0.6 | 0.149 | 0.142 | -0.593 | 0.661 | 0.148 | -0.42 | -0.554 | -0.579 | -0.629 | 0.977 | 0.763 | 0.249 | 0.165 | 0.161 | 0.141 | 
COC(=O)c1ccc([C@H]2c3[nH]c4ccccc4c3C[C@H](C(=O)OC)N2C(=O)CCl)cc1 [RSL3] | 3550 nM | 54.5 | 1.58 µM | 0.792 | -0.133 | 0.956 | 0.566 | -0.866 | 1.05 | 0.96 | 0.977 | 0.999 | -0.646 | -0.916 | 0.983 | 0.976 | 0.977 | 0.974 | 0.0831 | 0.00106 | 
